Assay results: ChEMBL document CHEMBL3044779, “The action of herbicides on fatty acid biosynthesis and elongation in barley and cucumber” (Pest Manag Sci, 2010)
Active and inactive are the calls of the source. No cut-off for these calls is given here.

Assays:
Hordeum vulgare [1] = assay: Inhibition of fatty acid synthesis in Hordeum vulgare (barley) assessed as inhibition of [14C]acetate incoporation in total fatty acids at 30 uM measured as total disintegration per g of fresh weight after 3 hr by liquid scintillation counting (reference value: 5.7 +/- 0.5 10^6 dpm x 10'6 g'1 fresh wt); type: functional
Cucumis sativus [2] = assay: Inhibition of fatty acid synthesis in Cucumis sativus (cucumber) using [14C]malonate assessed as inhibition of [14C]-labeled 24C fatty acid production at 30 uM after 3 hr by liquid scintillation counting; type: functional, organism-based
Hordeum vulgare [3] = assay: Inhibition of fatty acid synthesis in Hordeum vulgare (barley) using [14C]malonate assessed as inhibition of [14C]-labeled 24C fatty acid production at 30 uM after 3 hr by liquid scintillation counting; type: functional, organism-based
Cucumis sativus [4] = assay: Inhibition of fatty acid synthesis in Cucumis sativus (cucumber) using [14C]malonate assessed as inhibition of [14C]-labeled 22C fatty acid production at 30 uM after 3 hr by liquid scintillation counting; type: functional, organism-based
Hordeum vulgare [5] = assay: Inhibition of fatty acid synthesis in Hordeum vulgare (barley) using [14C]malonate assessed as inhibition of [14C]-labeled 22C fatty acid production at 30 uM after 3 hr by liquid scintillation counting; type: functional, organism-based
Cucumis sativus [6] = assay: Inhibition of fatty acid synthesis in Cucumis sativus (cucumber) using [14C]malonate assessed as inhibition of [14C]-labeled 18C fatty acid production at 30 uM after 3 hr by liquid scintillation counting; type: functional, organism-based
Hordeum vulgare [7] = assay: Inhibition of fatty acid synthesis in Hordeum vulgare (barley) using [14C]malonate assessed as inhibition of [14C]-labeled 18C fatty acid production at 30 uM after 3 hr by liquid scintillation counting; type: functional, organism-based
Hordeum vulgare [8] = assay: Inhibition of fatty acid synthesis in Hordeum vulgare (barley) using [14C]acetate assessed as [14C]-labeled 22C fatty acid level at 30 uM after 3 hr by liquid scintillation counting (reference value: 5.5 +/- 0.2%); type: functional; set-up: scale not given: the % may be the effect or the level left
Cucumis sativus [9] = assay: Inhibition of fatty acid synthesis in Cucumis sativus (cucumber) using [14C]acetate assessed as [14C]-labeled 20C fatty acid level at 30 uM after 3 hr by liquid scintillation counting (reference value: 5.1 +/- 0.7%); type: functional; set-up: scale not given: the % may be the effect or the level left
Cucumis sativus [10] = assay: Inhibition of fatty acid synthesis in Cucumis sativus (cucumber) using [14C]malonate assessed as inhibition of [14C]-labeled 20C fatty acid production at 30 uM after 3 hr by liquid scintillation counting; type: functional, organism-based
Hordeum vulgare [11] = assay: Inhibition of fatty acid synthesis in Hordeum vulgare (barley) using [14C]malonate assessed as inhibition of [14C]-labeled 20C fatty acid production at 30 uM after 3 hr by liquid scintillation counting; type: functional, organism-based
Cucumis sativus [12] = assay: Inhibition of fatty acid synthesis in Cucumis sativus (cucumber) using [14C]malonate assessed as inhibition of [14C]-labeled 16C fatty acid production at 30 uM after 3 hr by liquid scintillation counting; type: functional, organism-based
Hordeum vulgare [13] = assay: Inhibition of fatty acid synthesis in Hordeum vulgare (barley) using [14C]malonate assessed as inhibition of [14C]-labeled 16C fatty acid production at 30 uM after 3 hr by liquid scintillation counting; type: functional, organism-based
Cucumis sativus [14] = assay: Inhibition of fatty acid synthesis in Cucumis sativus (cucumber) assessed as inhibition of [14C]malonate incoporation in total fatty acids at 30 uM measured after 3 hr by liquid scintillation counting; type: functional, organism-based
Hordeum vulgare [15] = assay: Inhibition of fatty acid synthesis in Hordeum vulgare (barley) assessed as inhibition of [14C]malonate incoporation in total fatty acids at 30 uM measured after 3 hr by liquid scintillation counting; type: functional, organism-based
Cucumis sativus [16] = assay: Inhibition of fatty acid synthesis in Cucumis sativus (cucumber) using [14C]acetate assessed as [14C]-labeled 24C fatty acid level at 30 uM after 3 hr by liquid scintillation counting (reference value: 6.5 +/- 1%); type: functional; set-up: scale not given: the % may be the effect or the level left
Hordeum vulgare [17] = assay: Inhibition of fatty acid synthesis in Hordeum vulgare (barley) using [14C]acetate assessed as [14C]-labeled 20C fatty acid level at 30 uM after 3 hr by liquid scintillation counting (reference value: 4.7 +/- 1.6%); type: functional; set-up: scale not given: the % may be the effect or the level left
Cucumis sativus [18] = assay: Inhibition of fatty acid synthesis in Cucumis sativus (cucumber) using [14C]acetate assessed as [14C]-labeled 18C fatty acid level at 30 uM after 3 hr by liquid scintillation counting (reference value: 41.2 +/- 1.1%); type: functional; set-up: scale not given: the % may be the effect or the level left
Hordeum vulgare [19] = assay: Inhibition of fatty acid synthesis in Hordeum vulgare (barley) using [14C]acetate assessed as [14C]-labeled 18C fatty acid level at 30 uM after 3 hr by liquid scintillation counting (reference value: 60.3 +/- 1.3%); type: functional; set-up: scale not given: the % may be the effect or the level left
Cucumis sativus [20] = assay: Inhibition of fatty acid synthesis in Cucumis sativus (cucumber) using [14C]acetate assessed as [14C]-labeled 16C fatty acid level at 30 uM after 3 hr by liquid scintillation counting (reference value: 29.2 +/- 3.5%); type: functional; set-up: scale not given: the % may be the effect or the level left
Hordeum vulgare [21] = assay: Inhibition of fatty acid synthesis in Hordeum vulgare (barley) using [14C]acetate assessed as [14C]-labeled 16C fatty acid level at 30 uM after 3 hr by liquid scintillation counting (reference value: 29.5 +/- 1.3%); type: functional; set-up: scale not given: the % may be the effect or the level left
Cucumis sativus [22] = assay: Inhibition of fatty acid synthesis in Cucumis sativus (cucumber) assessed as inhibition of [14C]acetate incoporation in total fatty acids at 30 uM measured as total disintegration per g of fresh weight after 3 hr by liquid scintillation counting (reference value: 6.4 +/- 1.2 dpm x 10^6 g'1 fresh wt); type: functional
Cucumis sativus [23] = assay: Inhibition of fatty acid synthesis in Cucumis sativus (cucumber) using [14C]acetate assessed as [14C]-labeled 22C fatty acid level at 30 uM after 3 hr by liquid scintillation counting (reference value: 17.9 +/- 2.5%); type: functional; set-up: scale not given: the % may be the effect or the level left

CCN(CC)C(=O)C(C)Oc1cccc2ccccc12 (stereo not drawn) [NAPROPAMIDE]
Activity (Hordeum vulgare [1]): 5.2 ×10⁶ dpm
inhibition (Cucumis sativus [2]): inactive
inhibition (Hordeum vulgare [3]): inactive
inhibition (Cucumis sativus [4]): inactive
inhibition (Hordeum vulgare [5]): inactive
inhibition (Cucumis sativus [6]): inactive
inhibition (Hordeum vulgare [7]): inactive
Activity (Hordeum vulgare [8]): 6.9%
Activity (Cucumis sativus [9]): 5.5%
inhibition (Cucumis sativus [10]): inactive
inhibition (Hordeum vulgare [11]): inactive
inhibition (Cucumis sativus [12]): inactive
inhibition (Hordeum vulgare [13]): inactive
inhibition (Cucumis sativus [14]): inactive
inhibition (Hordeum vulgare [15]): inactive
Activity (Cucumis sativus [16]): 5.9%
Activity (Hordeum vulgare [17]): 7.6%
Activity (Cucumis sativus [18]): 43.1%
Activity (Hordeum vulgare [19]): 66.9%
Activity (Cucumis sativus [20]): 26.5%
Activity (Hordeum vulgare [21]): 18.7%
Activity (Cucumis sativus [22]): 6.2 ×10⁶ dpm
Activity (Cucumis sativus [23]): 19%
